Results as given in publication PMC4854934, “Rapid Screening of Antimicrobial Synthetic Peptides” (International Journal of Peptide Research and Therapeutics, 2015).
Values after ≈ are worked out from the molar mass of the structure shown. “Also recorded” adds a separate entry of the source. Where a name gives a salt, the structure may show the parent alone. Read-outs that look alike come from different tables or passages of the source. Where a SMILES comes first, the peptide text is derived from it. Bridges are numbered along the chain shown (N, C = ends). Roman numbers before positions name the chains, in order. Where no end group is shown, it is not given here. The star is where a group is joined. Palmitoyl = CCCCCCCCCCCCCCCC(=O)*; Myristoyl = CCCCCCCCCCCCCC(=O)*; Lauroyl = CCCCCCCCCCCC(=O)*

Columns and labels:
Format in all cases: cell-based
[1] = test system: Bacillus subtilis ATCC 6633
Protocol: (§1) Minimum inhibitory concentration (MIC) was determined by broth microdilution method on 96-well polypropylene plates, according to Clinical and Laboratory Standards Institute (CLSI) recommendations. All tests were conducted in triplicate and involved six reference strains of the following bacteria: Bacillus subtilis ATCC 6633, Escherichia coli ATCC 25922, Klebsiella pneumoniae ATCC 200603, Pseudomonas aeruginosa ATCC 9027, Staphylococcus aureus ATCC 25923, Staphylococcus epidermidis ATCC 14490 and two reference strains of fungi: Candida albicans ATCC 10231 and Candida tropicalis PCM 2681. Concentrations of applied peptides ranged from 512 to 1 µg/mL. Two microbiological media were used: Mueller–Hinton Broth for bacteria and Sabouraud Dextrose Broth for fungi. Incubation took 18 h at 37 °C and 48 h at 27 °C respectively. MIC was taken as the lowest concentration of a peptide where the visible growth of microbes was inhibited.

[2] = test system: Candida albicans ATCC 10231
Protocol: as §1

[3] = test system: Candida tropicalis PCM 2681
Protocol: as §1

[4] = test system: Escherichia coli ATCC 25922
Protocol: as §1

[5] = test system: Klebsiella pneumoniae ATCC 200603
Protocol: as §1

[6] = test system: Pseudomonas aeruginosa ATCC 9027
Protocol: as §1

[7] = test system: Staphylococcus aureus ATCC 25923
Protocol: as §1

[8] = test system: Staphylococcus epidermidis ATCC 14490
Protocol: as §1

[9] = test system: all microorganisms tested; experiment: TLC direct bioautography (TLC-DB) with resazurin; settings: crude peptide, bacteria 37 °C 5 h, fungi 27 °C 7 h, resazurin 4 mg/mL (0.1 % Triton X-100); for TLC-DB with separation: zones after resazurin: 4 µL of 5 mg/mL, n-butanol/acetone/acetic acid/5 % ammonia/water 4.5:1.5:1:1:2; for TLC-DB without separation: appearance of spot after resazurin: 10 µL of 5 mg/mL applied directly on TLC plate, no development
Protocol: Direct bioautography assays to choose the most suitable and efficient stationary phase were performed on the following TLC plates: TLC Silica gel 60 RP-18 F254S (Merck), HPTLC-Platten Nano-SIL 20 UV254 (Macherey–Nagel), HPTLC Nano-ADAMANT UV254 (Macherey–Nagel) and TLC Aluminium oxide 60 F254 (Merck). The plates were sealed separately and autoclaved at 121 °C for 15 min. Peptide samples were dissolved in the solution of methanol and distilled water (75:25). 4 μL of each sample (5 mg/mL) was applied on the TLC plate. Separation was performed using a mobile phase consisting of n-butanol, acetone, acetic acid, 5 % ammonia and distilled water (4.5:1.5:1:1:2 v/v/v/v/v). Moreover, samples without separation were also investigated. In this case 10 µL of each sample was applied directly on the TLC plate and dried. All processes were performed under sterile conditions in the laminar flow cabinet. Microbiological assays were conducted using fivefold dilution of overnight culture of bacteria and a 48-h culture of fungi. After evaporation of eluents, TLC plates were sterilized under UV for 15 min and dipped into previously prepared inoculums of microorganisms for 20 s. Subsequently they were placed in a sterile Petri dish and incubated—bacteria at 37 °C for 5 h and fungi at 27 °C for 7 h. To visualize the growth inhibition zones, the plates were sprayed with 4 mg/mL (0.1 % Triton X-100) of a cell viability reagent, resazurin salt solution (Sigma-Aldrich).
To determine the usefulness of the TLC layer material, preliminary separation experiments were carried out. […] RP-18 layer’s stability was affected by TLC-bioautography procedures, resulting in material disruption. On the other hand, aluminum oxide layer was stable enough, however it gave low quality separation. Therefore, Nano-Sil and Nano-ADAMANT layers were chosen as the most suitable for TLC-DB of synthetic antimicrobial peptides. Mobile phase consisting of n-butanol, acetone, acetic acid, 5 % ammonia and distilled water (4.5:1.5:1:1:2 v/v/v/v/v) provided the best separation of tested compounds. Moreover, the influence of TFA content among crude peptides was also investigated. In this case all tested compounds were lyophilized from 0.1 mM HCl for three times before application on TLC plate in order to exchange the TFA to chloride counter ion. Nevertheless, the obtained results were the same. Assays with (Fig. 1) and without separation (Fig. 2) were performed simultaneously. Growing microorganisms that adhered to the surface of the TLC plate reduced the dye to pink resorufin. […] The Rf values of non-viable cell area were the same for purified compounds.

[10] = test system: all the tested species of bacteria and fungi; experiment: Broth microdilution, summary over all strains; settings: summary of Tables 1, 2
Protocol: as §1

[11] = broth microdilution, 96-well polypropylene plates, Mueller-Hinton Broth, 18 h at 37 °C, peptide 512 to 1 µg/mL, triplicate, visible growth
[12] = broth microdilution, 96-well polypropylene plates, Sabouraud Dextrose Broth, 48 h at 27 °C, peptide 512 to 1 µg/mL, triplicate, visible growth

Row | Compound | MIC against B. subtilis ATCC 6633 ([1]; ATCC 6633, 18 h) | MIC against C. albicans ATCC 10231 ([2]; ATCC 10231, 48 h) | MIC against C. tropicalis PCM 2681 ([3]; PCM 2681, 48 h) | MIC against E. coli ATCC 25922 ([4]; ATCC 25922, 18 h) | MIC against K. pneumoniae ATCC 200603 ([5]; ATCC 200603, 18 h) | MIC against P. aeruginosa ATCC 9027 ([6]; ATCC 9027, 18 h) | MIC against S. aureus ATCC 25923 ([7]; ATCC 25923, 18 h) | MIC against S. epidermidis ATCC 14490 ([8]; ATCC 14490, 18 h) | TLC-DB with separation: zones after resazurin [9] | TLC-DB without separation: appearance of spot after resazurin [9] | MIC against B. subtilis ATCC 6633 [1, 11] | MIC against C. albicans ATCC 10231 [2, 12] | MIC against C. tropicalis PCM 2681 [3, 12] | MIC against E. coli ATCC 25922 [4, 11] | MIC against K. pneumoniae ATCC 200603 [5, 11] | MIC against P. aeruginosa ATCC 9027 [6, 11] | MIC against S. aureus ATCC 25923 [7, 11] | MIC against S. epidermidis ATCC 14490 [8, 11] | antimicrobial activity among all the tested species of bacteria and fungi [10]
1 | CCCCCCCCCCCC(=O)N[C@@H](CSSC[C@H](NC(=O)CCCCCCCCCCC)C(=O)N[C@@H](CCCCN)C(=O)N[C@@H](CCCCN)C(N)=O)C(=O)N[C@@H](CCCCN)C(=O)N[C@@H](CCCCN)C(N)=O [Laur-CKK-NH2 dimer] (I: Lauroyl-Cys-Lys-Lys-NH2 / II: Lauroyl-Cys-Lys-Lys-NH2; disulfide I:1-II:1) | 2 µg/mL (≈ 1.79 µM) | 512 µg/mL (≈ 459 µM) | >512 µg/mL | 8 µg/mL (≈ 7.17 µM) | 8 µg/mL (≈ 7.17 µM) | 512 µg/mL (≈ 459 µM) | 8 µg/mL (≈ 7.17 µM) | 2 µg/mL (≈ 1.79 µM) | two blue spots; also recorded: two inhibition zones | did not reduce resazurin |  |  |  |  |  |  |  |  | 
2 | CCCCCCCCCCCCCCCC(=O)N[C@@H](CCCCN)C(=O)NCC(=O)N[C@@H](CCCCN)C(N)=O [Pal-KGK-NH2] (Palmitoyl-Lys-Gly-Lys-NH2) | 2 µg/mL (≈ 3.52 µM) | 64 µg/mL (≈ 113 µM) | >512 µg/mL | 8 µg/mL (≈ 14.1 µM) | 16 µg/mL (≈ 28.1 µM) | 64 µg/mL (≈ 113 µM) | 16 µg/mL (≈ 28.1 µM) | 4 µg/mL (≈ 7.03 µM) |  | did not reduce resazurin |  |  |  |  |  |  |  |  | 
3 | CC[C@H](C)[C@H](N)C(=O)N[C@@H](CS)C(=O)N[C@@H](Cc1c[nH]cn1)C(=O)N[C@@H](Cc1c[nH]cn1)C(=O)N[C@@H](CS)C(=O)N[C@H](C(=O)O)[C@@H](C)CC [ICHHCI-OH] (H-ICHHCI-OH; N-terminus assumed) |  |  |  |  |  |  |  |  | white reduction zone; also recorded: white inhibition zone | soft white inhibition zone | >512 µg/mL | >512 µg/mL | >512 µg/mL | >512 µg/mL | >512 µg/mL | >512 µg/mL | >512 µg/mL | >512 µg/mL | no antimicrobial activity
4 | CCCCCCCCCCCCCC(=O)N[C@@H](CCCCN)C(=O)NCC(=O)N[C@@H](CCCCN)C(N)=O [Mir-KGK-NH2] (Myristoyl-Lys-Gly-Lys-NH2) | 2 µg/mL (≈ 3.7 µM) | 128 µg/mL (≈ 237 µM) | 256 µg/mL (≈ 473 µM) | 64 µg/mL (≈ 118 µM) | 128 µg/mL (≈ 237 µM) | >512 µg/mL | 16 µg/mL (≈ 29.6 µM) | 4 µg/mL (≈ 7.4 µM) |  | did not reduce resazurin |  |  |  |  |  |  |  |  | 
5 | CCCCCCCCCCCCCCCC(=O)N[C@@H](CCCCNC(=O)C(F)(F)F)C(=O)N[C@@H](CCCCNC(=O)C(F)(F)F)C(N)=O [Pal-K(TFA)K(TFA)-NH2] | >512 µg/mL | >512 µg/mL | >512 µg/mL | >512 µg/mL | >512 µg/mL | >512 µg/mL | >512 µg/mL | >512 µg/mL |  |  |  |  |  |  |  |  |  |  | no antimicrobial activity
6 | KWKLFKKIGAVLKVL-NH2 [CAMEL] |  |  |  |  |  |  |  |  |  |  | 2 µg/mL | 128 µg/mL | 256 µg/mL | 2 µg/mL | 2 µg/mL | 256 µg/mL | 4 µg/mL | 1 µg/mL | 
7 | QQRFEWEFEQQ-NH2 [p11] |  |  |  |  |  |  |  |  |  |  | >512 µg/mL | >512 µg/mL | >512 µg/mL | >512 µg/mL | >512 µg/mL | >512 µg/mL | >512 µg/mL | >512 µg/mL | 
8 | GLFDVIKKVASVIGGL-NH2 [Citropin 1.1] | 4 µg/mL | 128 µg/mL | 128 µg/mL | 32 µg/mL | 128 µg/mL | 256 µg/mL | 16 µg/mL | 8 µg/mL |  |  |  |  |  |  |  |  |  |  | 
9 | CCCCCCCCCCCCCCCC(=O)N[C@@H](CCCCN)C(=O)N[C@@H](CCCCN)C(N)=O [Pal-KK-NH2] | 2 µg/mL (≈ 3.91 µM) | 128 µg/mL (≈ 250 µM) | 128 µg/mL (≈ 250 µM) | 8 µg/mL (≈ 15.6 µM) | 16 µg/mL (≈ 31.3 µM) | 128 µg/mL (≈ 250 µM) | 8 µg/mL (≈ 15.6 µM) | 4 µg/mL (≈ 7.82 µM) |  | did not reduce resazurin |  |  |  |  |  |  |  |  | 
